According to PubChem BioAssay (NCI):
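Exposure lasted 48 hours, with cells grown in 96-well plates and compounds tested at five concentrations. At the GI50, growth is halved. TGI: total growth inhibition.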

Columns and labels:
Assay in all cases: NCI tumour cell line growth inhibition, 48 h; in the data active = GI50 below about 0.43 µM; inactive = the rest
CAKI-1 renal = system: CAKI-1 renal
SN12C renal = system: SN12C renal
DU-145 prostate = system: DU-145 prostate
HS 578T breast = system: HS 578T breast
UACC-257 melanoma = system: UACC-257 melanoma
COLO 205 colon = system: COLO 205 colon
NCI/ADR-RES ovarian = system: NCI/ADR-RES ovarian
PC-3 prostate = system: PC-3 prostate
KM12 colon = system: KM12 colon
NCI-H23 lung = system: NCI-H23 lung
HL-60(TB) leukemia = system: HL-60(TB) leukemia
SF-268 CNS = system: SF-268 CNS
T-47D breast = system: T-47D breast
SK-OV-3 ovarian = system: SK-OV-3 ovarian
OVCAR-5 ovarian = system: OVCAR-5 ovarian
HT29 colon = system: HT29 colon
SNB-19 CNS = system: SNB-19 CNS
TK-10 renal = system: TK-10 renal
MDA-MB-435 = system: MDA-MB-435
M14 melanoma = system: M14 melanoma
HCT-116 colon = system: HCT-116 colon
MDA-MB-231 breast = system: MDA-MB-231 breast
786-0 renal = system: 786-0 renal
U251 CNS = system: U251 CNS
HCT-15 colon = system: HCT-15 colon
RXF 393 renal = system: RXF 393 renal
LOX IMVI melanoma = system: LOX IMVI melanoma
NCI-H226 lung = system: NCI-H226 lung
SK-MEL-2 melanoma = system: SK-MEL-2 melanoma
CCRF-CEM leukemia = system: CCRF-CEM leukemia
A549 NSCLC = system: A549 NSCLC
NCI-H522 lung = system: NCI-H522 lung
UO-31 renal = system: UO-31 renal
SR leukemia = system: SR leukemia
MALME-3M melanoma = system: MALME-3M melanoma
A498 renal = system: A498 renal
OVCAR-4 ovarian = system: OVCAR-4 ovarian
RPMI-8226 leukemia = system: RPMI-8226 leukemia
SW-620 colon = system: SW-620 colon
UACC-62 melanoma = system: UACC-62 melanoma
K-562 leukemia = system: K-562 leukemia
ACHN renal = system: ACHN renal
SNB-75 CNS = system: SNB-75 CNS
SK-MEL-28 melanoma = system: SK-MEL-28 melanoma
IGROV1 ovarian = system: IGROV1 ovarian
SF-539 CNS = system: SF-539 CNS
MOLT-4 leukemia = system: MOLT-4 leukemia
SK-MEL-5 melanoma = system: SK-MEL-5 melanoma
MCF7 breast = system: MCF7 breast
HCC-2998 colon = system: HCC-2998 colon
OVCAR-3 ovarian = system: OVCAR-3 ovarian
HOP-62 NSCLC = system: HOP-62 NSCLC
HOP-92 NSCLC = system: HOP-92 NSCLC
BT-549 breast = system: BT-549 breast
OVCAR-8 ovarian = system: OVCAR-8 ovarian
NCI-H460 lung = system: NCI-H460 lung

C[C@@H]1N=C(c2ccc(Br)cc2)Nc2nc3ccccn3c2C1=O
23 µM: TGI (HOP-92 NSCLC)
40.5 µM: TGI (SK-MEL-5 melanoma)
85.3 µM: TGI (SF-539 CNS)
inactive: GI50 (CAKI-1 renal) 3.09 µM | GI50 (SN12C renal) 17.6 µM | GI50 (DU-145 prostate) 23.2 µM | GI50 (HS 578T breast) 2.81 µM | GI50 (UACC-257 melanoma) 35.2 µM | GI50 (COLO 205 colon) 1.87 µM | GI50 (NCI/ADR-RES ovarian) 7.45 µM | GI50 (PC-3 prostate) 5.7 µM | GI50 (KM12 colon) 3.39 µM | GI50 (NCI-H23 lung) 25.4 µM | GI50 (HL-60(TB) leukemia) 6.49 µM | GI50 (SF-268 CNS) 17.2 µM | GI50 (T-47D breast) 4.62 µM | GI50 (SK-OV-3 ovarian) 4.41 µM | GI50 (OVCAR-5 ovarian) 23.5 µM | GI50 (HT29 colon) 3.73 µM | GI50 (SNB-19 CNS) 7.45 µM | GI50 (TK-10 renal) 21 µM | GI50 (MDA-MB-435) 1.33 µM | GI50 (M14 melanoma) 3.6 µM | GI50 (HCT-116 colon) 4.04 µM | GI50 (MDA-MB-231 breast) 6.08 µM | GI50 (786-0 renal) 23.8 µM | GI50 (U251 CNS) 6.64 µM | GI50 (HCT-15 colon) 3.64 µM | GI50 (RXF 393 renal) 10.2 µM | GI50 (LOX IMVI melanoma) 6.34 µM | GI50 (NCI-H226 lung) 14.7 µM | GI50 (SK-MEL-2 melanoma) 15.7 µM | GI50 (CCRF-CEM leukemia) 6.56 µM | GI50 (A549 NSCLC) 6.7 µM | GI50 (NCI-H522 lung) 3.24 µM | GI50 (UO-31 renal) 8.11 µM | GI50 (SR leukemia) 2.42 µM | GI50 (MALME-3M melanoma) 15.2 µM | GI50 (A498 renal) 3.26 µM | GI50 (OVCAR-4 ovarian) 17.9 µM | GI50 (RPMI-8226 leukemia) 7.31 µM | GI50 (SW-620 colon) 3.75 µM | GI50 (UACC-62 melanoma) 4.35 µM | GI50 (K-562 leukemia) 4.13 µM | GI50 (ACHN renal) 6.75 µM | GI50 (SNB-75 CNS) 0.703 µM | GI50 (SK-MEL-28 melanoma) 9.51 µM | GI50 (IGROV1 ovarian) 51.9 µM | GI50 (SF-539 CNS) 7.98 µM | GI50 (MOLT-4 leukemia) 12.8 µM | GI50 (SK-MEL-5 melanoma) 2.24 µM | GI50 (MCF7 breast) 2.99 µM | GI50 (HCC-2998 colon) 21.9 µM | GI50 (OVCAR-3 ovarian) 3.34 µM | GI50 (HOP-62 NSCLC) 5.75 µM | GI50 (HOP-92 NSCLC) 1.16 µM | GI50 (BT-549 breast) 5.49 µM | GI50 (OVCAR-8 ovarian) 17 µM | GI50 (NCI-H460 lung) 3.06 µM
38.2 µM: TGI (A498 renal)
4.75 µM: TGI (COLO 205 colon)
> 100 µM: TGI (CAKI-1 renal) | TGI (SN12C renal) | TGI (DU-145 prostate) | TGI (UACC-257 melanoma) | TGI (NCI/ADR-RES ovarian) | TGI (PC-3 prostate) | TGI (KM12 colon) | TGI (NCI-H23 lung) | TGI (HL-60(TB) leukemia) | TGI (SF-268 CNS) | TGI (T-47D breast) | TGI (SK-OV-3 ovarian) | TGI (OVCAR-5 ovarian) | TGI (HT29 colon) | TGI (SNB-19 CNS) | TGI (TK-10 renal) | TGI (HCT-116 colon) | TGI (MDA-MB-231 breast) | TGI (786-0 renal) | TGI (U251 CNS) | TGI (HCT-15 colon) | TGI (LOX IMVI melanoma) | TGI (NCI-H226 lung) | TGI (SK-MEL-2 melanoma) | TGI (CCRF-CEM leukemia) | TGI (A549 NSCLC) | TGI (UO-31 renal) | TGI (SR leukemia) | TGI (MALME-3M melanoma) | TGI (OVCAR-4 ovarian) | TGI (RPMI-8226 leukemia) | TGI (SW-620 colon) | TGI (UACC-62 melanoma) | TGI (K-562 leukemia) | TGI (ACHN renal) | TGI (SK-MEL-28 melanoma) | TGI (IGROV1 ovarian) | TGI (MOLT-4 leukemia) | TGI (MCF7 breast) | TGI (HCC-2998 colon) | TGI (HOP-62 NSCLC) | TGI (BT-549 breast) | TGI (OVCAR-8 ovarian) | TGI (NCI-H460 lung)
7.1 µM: TGI (MDA-MB-435)
48.2 µM: TGI (M14 melanoma)
7.06 µM: TGI (SNB-75 CNS)
51.7 µM: TGI (RXF 393 renal)
52 µM: TGI (HS 578T breast)
17.8 µM: TGI (OVCAR-3 ovarian)
18.4 µM: TGI (NCI-H522 lung)
